Here are results for one compound from patent US20120264159A1, “SCREENING SYSTEM FOR MODULATORS OF HER2 MEDIATED TRANSCRIPTION AND HER2 MODULATORS IDENTIFED THEREBY” (BUCK INSTITUTE FOR AGE RESEARCH, priority 2001, published 2012).

Molecules are shown by their SMILES. “Also recorded” adds a separate entry of the source.

The subject of data set [1] is MCF/R06pGL-9 cells. The experiment in a line: MTT cell viability assay on MCF/R06pGL-9 cells. It counts as cell-based, human. The source says: A luciferase reporter plasmid (designated RO6pGL-luc) was constructed by inserting the ˜500 bp SmaI-SmaI fragment of the human ErbB2 proximal promoter (12) into the pGL3Basic plasmid driving a luciferase reporter gene, as has been described (10). R06pGL-luc and a plasmid expressing neomycin phosphotransferase were co-transfected into the MCF-7 cells (ATCC) using Effectene (Qiagen). Cells were selected for stable expression of luciferase and neomycin (G418)-resistance. Single cell clones including MCF/R06pGL-9 were isolated and maintained in DME H-16 medium supplemented with 10% fetal bovine serum, 10 μg/ml insulin, 100 μg/ml penicillin/streptomycin, and 500 μg/ml G418. MTT cell viability and luciferase expression assays on the MCF/RO6pGL-9 sublime were performed after plating the subline into 96-well culture dishes at a density of 10^4 cells/well in 100 μL medium. After 24 hour cell plating, TSA from stock DMSO solution was diluted into 100 μL medium and then added into eight replicate wells at the indicated concentrations. […] The reaction was quantified by absorbance at 570 nm measured with a microplate reader (Molecular Devices) and the mean (±SD) optical density recorded after normalization by the vehicle treated controls. […]

The test system of data set [2] is ErbB2 and ESX promoter hypersensitive loci. The experiment in a line: DNase I hypersensitivity analysis of ErbB2 and ESX promoters. Format: cell-based, human. To be noted: SKBR3 cells, 24 hour, 0.4 μM TSA. Here is the method:
(§1) The conserved and singular DNase I hypersensitivity sites found in the proximal ErbB2 and ESX promoters (12,15) were assayed as before (12). Briefly, following culture treatment of cells, nuclei isolated by mild detergent lysis in a buffer containing 10 mM Hepes pH 7.9, 1.5 mM MgCl2, 10 mM KCl, 0.4% NP-40, 10% glycerol and 1 mM DTT. Partial DNase I digestions were carried out by varying DNase I treatment times (0-15 minutes at 37( ) at a fixed DNase I concentrations (0.5-1.0 units per 10^6 nuclei). After purifying and restricting the DNA, it was electrophoresed through 0.7% agarose gels and blotted onto nylon membranes, UV-crosslinked and hybridized with randomly ^32P-labelled ErbB2 and ESX promoter probes, as similarly performed for routine Southern blotting. For Northern blotting, total (treated vs. control) cell RNA (10 μg/sample lane) was isolated using TRIzol (Invitrogen) according to manufacturer's specifications, electrophoresed into 1% agarose-formaldehyde gels and transferred onto membranes that were then hybridized with ^32P-labelled ErbB2 and ESX cDNA probes. For transcriptional run-off assays cell nuclei were first isolated from treated and control cells as described for the DNase I studies. […]

Data set [3] deals with ErbB2 promoter. Briefly: Genomically integrated ErbB2 promoter-luciferase reporter screen in MCF/R06pGL-9 cells. It counts as cell-based, human. As to conditions: 24 h treatment. As for the experimental part:
Reporter activity was assayed as follows: From T-150 or T-75 culture flasks, about […] cells/well were plated into a 96 well plate format for high-throughput screening. 24 hours post plating a test agent e.g. a drug from a combinatorial library, was added to the wells at various concentrations. Certain wells were used as controls (e.g. PBS or DMSO vehicle only). Replicate wells ([…] per drug concentration) were run. 24 hours after addition of the test agent the cells were lysed, a luciferase reagent was added and activity in each well was read using a high-throughput screening plate reader (labsystems Fluoroskan). Parallel plates were run for cell viability using an MTT assay (Sigma).
A luciferase reporter plasmid (designated RO6pGL-luc) was constructed by inserting the ˜500 bp SmaI-SmaI fragment of the human ErbB2 proximal promoter (12) into the pGL3Basic plasmid driving a luciferase reporter gene, as has been described (10). R06pGL-luc and a plasmid expressing neomycin phosphotransferase were co-transfected into the MCF-7 cells (ATCC) using Effectene (Qiagen). Cells were selected for stable expression of luciferase and neomycin (G418)-resistance. […] The reaction was quantified by absorbance at 570 nm measured with a microplate reader (Molecular Devices) and the mean (±SD) optical density recorded after normalization by the vehicle treated controls. […]

Data set [4] has as its system ESX transcript. Briefly: Northern blot of ESX transcript levels in SKBR3 cells. Format: cell-based, human. As to conditions: 24 hours TSA treatment. Here is the method:
as §1

For data set [5], the system named is carcinogen-induced mammary cancer. To be noted: up to 5 mg/kg, cited from earlier work.

`CC(/C=C/C(=O)NO)=C\[C@@H](C)C(=O)c1ccc(N(C)C)cc1` [TSA, trichostatin A]: the “cell viability (MTT assay)” value in data set [1] (24 hours exposure, TSA concentrations up to 50 μM) is reported as “little impact on cell viability”; in data set [1] (dose <1 μM, within 24 h) it was “does not impair cell viability”. Besides, the “DNase I hypersensitivity of ErbB2 and ESX promoter loci” value in data set [2] is “lack of any TSA treatment effects on the hypersensitive loci”. For the same compound, the “ErbB2 promoter-reporter (luciferase) activity” value in data set [3] was “significantly represses; also recorded: significant reduction of luciferase activity”. Further, the “increase in ESX transcript levels” value in data set [4] turned out to be 5 fold. Moreover, the ill effects entry in data set [5] (adult or embryonic mice) is on record as “no ill effects”. The antitumor activity result in data set [5] (ip, sc, carcinogen-induced mammary cancer) is “potent antitumor activity”.
